Experimental findings from patent US12448399B2, “Cereblon-based KRAS degrading PROTACs and uses related thereto” (Arvinas Operations, Inc., priority 2023, dated 2025) are described below.

Molecules are shown by their SMILES.

The target in the assay is T1, KRas-G12D (Homo sapiens, UniProt P01116, G12D).
T1 construct: insert the HiBiT tag onto the N-terminus of one or more of the endogenous KRas alleles; host or cells: AsPC-1 HiBiT-KRasG12D knock-in clone (one tagged allele, two untagged KRasG12D alleles)
Put plainly: HiBiT Degradation Assay (G12D), AsPC-1 HiBiT-KRasG12D cells, 24 hr. Format: cell-based. The settings on record: for Dmax: ASPC1, AsPC-1 cells, maximum degradation observed; for DC50: AsPC-1 cells. The procedure, abridged:
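Degradation was read after 24 hr compound exposure (0.5% DMSO, 37° C) by Nano-Glo HiBiT lytic luminescence in AsPC-1 cells carrying a HiBiT tag on one of three KRasG12D alleles. Signal relative to DMSO gave DC50 and Dmax by 4-parameter fit; alamar blue fluorescence monitored cytotoxicity.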

T1 sequence (P01116 1-188 isoform P01116-2 G12D): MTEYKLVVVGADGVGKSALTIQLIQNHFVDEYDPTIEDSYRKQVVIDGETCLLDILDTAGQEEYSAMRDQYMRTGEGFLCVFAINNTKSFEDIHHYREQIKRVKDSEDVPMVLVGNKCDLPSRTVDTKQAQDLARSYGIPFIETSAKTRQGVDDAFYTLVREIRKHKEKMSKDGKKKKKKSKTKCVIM

One may read the Dmax as the largest share of the target that was removed. For orientation: DC50 means the concentration giving 50% degradation. Read a high DC50 as degradation only at high concentration. As to `C#Cc1c(F)ccc2cc(O)cc(-c3ncc4c(N5CC6CCC(C5)N6)nc(OC[C@@H]5C[C@@H](OC6CCN(CC7CCN(c8cc(F)c9c(c8F)n(C)c(=O)n9C8CCC(=O)NC8=O)CC7)CC6)CN5C)nc4c3F)c12` (stereo partly drawn) [Compound 201, 3-(5-{4-[(4-{[(3R,5S)-5-{[(4-{3,8-diazabicyclo[3.2.1]octan-3-yl}-7-(8-ethynyl-7-fluoro-3-hydroxynaphthalen-1-yl)-8-fluoropyrido[4,3-d]pyrimidin-2-yl)oxy]methyl}-1-methylpyrrolidin-3-yl]oxy}piperidin-1-yl)methyl]piperidin-1-yl}-4,7-difluoro-3-methyl-2-oxo-2,3-dihydro-1H-1,3-benzodiazol-1-yl)piperidine-2,6-dione], the Dmax is > 70% and the DC50 was < 5.1 µM. The corresponding values for `C#Cc1c(F)ccc2cc(O)cc(-c3ncc4c(N5CC6CCC(C5)N6)nc(OCC5(CN6CCC(CC7CCN(CC8CCN(c9ccc%10c(c9)n(C)c(=O)n%10C9CCC(=O)NC9=O)CC8)CC7)CC6)CC5)nc4c3F)c12` (stereo not drawn) [Compound 196, 3-[5-[4-[[4-[[1-[[1-[[4-(3,8-diazabicyclo[3.2.1]octan-3-yl)-7-(8-ethynyl-7-fluoro-3-hydroxy-1-naphthyl)-8-fluoro-pyrido [4,3-d]pyrimidin-2-yl]oxymethyl]cyclopropyl]methyl]-4-piperidyl]methyl]-1-piperidyl]methyl]-1-piperidyl]-3-methyl-2-oxo-benzimidazol-1-yl]piperidine-2,6-dione] are > 70% and < 5.1 µM.

`C#Cc1c(F)ccc2cc(O)cc(-c3ncc4c(N5CC6CCC(C5)N6)nc(OCCN5CCC(CC6CCN(c7cccc8c7n(C)c(=O)n8C7CCC(=O)NC7=O)CC6)CC5)nc4c3F)c12` (stereo not drawn) [Compound 129, 3-(4-{4-[(1-{2-[(4-{3,8-diazabicyclo[3.2.1]octan-3-yl}-7-(8-ethynyl-7-fluoro-3-hydroxynaphthalen-1-yl)-8-fluoropyrido[4,3-d]pyrimidin-2-yl)oxy]ethyl}piperidin-4-yl)methyl]piperidin-1-yl}-3-methyl-2-oxo-2,3-dihydro-1H-1,3-benzodiazol-1-yl)piperidine-2,6-dione]: the maximal degradation (Dmax) is > 70% and the DC50 was < 5.1 µM. In the same order, the values of `C#Cc1c(F)ccc2cc(O)cc(-c3ncc4c(N5CC6CCC(C5)N6)nc(OCC5(CN6CCC(CC7CCN(c8ccc9c(c8)n(C(C)C)c(=O)n9C8CCC(=O)NC8=O)CC7)CC6)CC5)nc4c3F)c12` (stereo not drawn) [Compound 191, 3-{5-[4-({1-[(1-{[(4-{3,8-diazabicyclo[3.2.1]octan-3-yl}-7-(8-ethynyl-7-fluoro-3-hydroxynaphthalen-1-yl)-8-fluoropyrido[4,3-d]pyrimidin-2-yl)oxy]methyl}cyclopropyl)methyl]piperidin-4-yl}methyl)piperidin-1-yl]-2-oxo-3-(propan-2-yl)-2,3-dihydro-1H-1,3-benzodiazol-1-yl}piperidine-2,6-dione] are > 70% and < 5.1 µM. In the case of `CCc1cccc2cc(O)cc(-c3ncc4c(N5CC6CCC(C5)N6C)nc(OCCN5CCC(CC6CCN(CC7CCN(c8cccc9c8CN(C8CCC(=O)NC8=O)C9=O)CC7)CC6)CC5)nc4c3F)c12` (stereo not drawn) [Compound 42, 3-[4-[4-[[4-[[1-[2-[7-(8-ethyl-3-hydroxy-1-naphthyl)-8-fluoro-4-(8-methyl-3,8-diazabicyclo[3.2.1]octan-3-yl)pyrido[4,3-d]pyrimidin-2-yl]oxyethyl]-4-piperidyl]methyl]-1-piperidyl]methyl]-1-piperidyl]-1-oxo-isoindolin-2-yl] piperidine-2,6-dione], the 50% degradation concentration (DC50) is > 1 µM.
